“Also recorded” adds a separate entry of the source. Like-named read-outs stand apart in the source and are kept apart here.
Legend:
[1] = system: HLA-DR (DRB1*01:01, DRB1*04:05, DRB1*09:01, DRB1*15:01); assay: FACS binding of biotinylated peptide to panel of HLA-DR on HEK293T cells; set-up: species or system human; conditions: FACS, SA-PE; […]; biotinylated peptide 30 µM, >5 h
[2] = system: parental 3T3 cells; assay: 96-well plate peptide binding assay, parental 3T3 cells, SA-β-gal/4MUG; set-up: species or system murine; conditions: SA-β-gal 3,000-fold
[3] = target: T1, DR1 (DRB1*01:01) (Homo sapiens, UniProt P01903+P01911, A100R/D57E/F55L/F60I/F76Y/I96L/L162R/M171V/P40L/Q125E/R42F/V115G/Y59C); assay: 96-well plate peptide binding assay, DR1-expressing 3T3 cells, SA-β-gal/4MUG; conditions: for Kd: live DR1-expressing 3T3, 96-well, 4MUG, parental binding subtracted
T1 construct: The open reading frame for DRA or DRB1 were flanked with Xho 1 and EcoR1 sites; expressed in transfected cells

[4] = system: parental 3T3 cells; assay: FACS binding of biotinylated peptide to parental 3T3 cells; set-up: species or system murine; conditions: SA-PE, parental 3T3, no HLA-DR, biotinylated peptide 30 µM overnight
[5] = target: T2, HLA-DR1 (DRA*01:01/DRB1*01:01) (Homo sapiens, UniProt P01903+P01911, A100R/D57E/F55L/F60I/F76Y/I96L/L162R/M171V/P40L/Q125E/R42F/V115G/Y59C); assay: FACS binding of biotinylated peptide to HLA-DR1 on HEK293T cells; conditions: SA-PE, biotinylated peptide 30 µM, >5 h, 3 to 6 independent experiments
[6] = system: DRB1 molecules (almost all genotypes); conditions: ref [25]; cited from earlier work
[7] = target: T2, HLA-DR1 (DRA*01:01/DRB1*01:01); assay: FACS binding of biotinylated peptide to HLA-DR1 on stable 3T3 cells; conditions: SA-PE, stable 3T3, DRA*01:01 + DRB1*01:01, biotinylated peptide 30 µM overnight
[8] = system: HLA-DR (DRB1*01:01, DRB1*04:05, DRB1*09:01, DRB1*15:01); assay: FACS binding of biotinylated peptide to panel of HLA-DR on stable 3T3 cells; set-up: species or system human; conditions: Supplemental Fig. 1 vs. Supplemental Fig. 2
[9] = target: T3, DR15 (DRB1*15:01) (Homo sapiens, UniProt P01903+P01911); assay: 96-well competition assay: inhibition of MBP83-99 loading to DR15-expressing 3T3 cells; assay type: binding; conditions: DR15-expressing 3T3; 1 h pre-incubation, then MBP83-99 6 h; 4MUG
T3 construct: The open reading frame for DRA or DRB1 were flanked with Xho 1 and EcoR1 sites; expressed in transfected cells

[10] = target: T1, DR1 (DRB1*01:01); assay: 96-well competition assay: inhibition of MBP83-99 loading to DR1-expressing 3T3 cells; assay type: binding; conditions: DR1-expressing 3T3; 1 h pre-incubation, then MBP83-99 (5 µM) 6 h; 4MUG
[11] = target: T3, DR15 (DRB1*15:01); assay: 96-well plate peptide binding assay, DR15-expressing 3T3 cells, SA-β-gal/4MUG; conditions: parental vs. DR15-expressing 3T3 cells; MBP83-99 5 µM
Method: (§1) Figure 3 Detection and screening system of antigen peptide binding to HLA on 3T3 cells in 96 well plate. (A) Scheme of the detection of HLA-bound peptides on cells in 96 well plates. HLA expressing cells are incubated with biotinylated antigen peptides, and bound peptides are probed with SA-β-gal, followed by enzyme reaction with chromogenic (ONPG) or fluorogenic substrate (4MUG). (B) Detection of HLA-bound peptides on 3T3 cells using fluorogenic substrate (4MUG) in 96 well plates. Two 96-well plates of DR15-expressing cells were incubated with MBP83-99 for 6 h, fixed with glutaraldehyde, and subjected to blocking with a blocking solution as detailed in the methods section. Thereafter, biotinylated peptides in one plate were probed with low concentration of SA-β-gal (3,000-fold dilution) and detected by using 4MUG. The other plate was analysed using a chromogenic substrate (ONPG) in Supplementary Fig. 3. (C) Time and concentration dependence of MBP83-99 binding to DR15-expressing 3T3 cells. The assay was conducted as in (B).
(§2) Unless otherwise described, the assay was conducted as follows. […] The reaction was stopped by addition of 100 µL of 0.5 M Na2CO3, and fluorescence intensity (Ex: 365 nm, Em: 450 nm) was measured by using a plate reader (Spectra Max plus, Molecular Devices, Sunnyvale, CA, USA). Wells devoid of cells and incubation with biotinylated peptide, but otherwise treated by using the same experimental procedure, were set as blank, and the mean fluorescence value for the wells was subtracted. The apparent Kd values for the binding of MBP83-99 and DR1 (DRB1*01:01) or DR15 (DRB1*15:01) was calculated by double reciprocal plot (1/[P-HLA] = Kd/[HLA]total [P] + 1/[HLA]total; where P represents peptide) or Scatchard plot ([P-HLA]/[P] = [HLA]total/Kd − [P-HLA]/Kd) after subtracting values for HLA-independent peptide binding (parental 3T3 cells) from the respective cells in a peptide concentration dependency experiment. […]

[12] = target: T4, DR15 (DRB1*15:01) (Homo sapiens, UniProt P01903+P01911, OTHER:DRA*01:01ANDEACHDRB1VECTORSWEREINTRODUCEDINTOTHECELLSAT1:1RATIO/OTHER:MBP83-99TODR15(DRB1*15:01)); assay: as above; conditions: live DR15-expressing 3T3, 96-well, 4MUG, 8-h incubation, parental binding subtracted
T4 construct: The open reading frame for DRA or DRB1 were flanked with Xho 1 and EcoR1 sites; expressed in transfected cells
Method: as §1, §2

[13] = system: HEK293T cells (non-transfected); assay type: binding; conditions: FACS, SA-PE, biotinylated peptide 30 µM, >5 h
[14] = target: DR4 (DRB1*04:05) (Homo sapiens, UniProt P01903+P01911, A100R/A169T/D86S/F76Y/I96L/K127E/L162R/M171V/N62H/P40V/Q125Y/R42H/S133A/S149N/S66Y/V115G/V209L/W38E); conditions: ref [24]; cited from earlier work
Method: To determine the genotype specificity and relative affinity of known epitope peptides, MBP83-99 and BiP336-355 peptide loading assays were performed on cells expressing DRA*01:01 plus various HLA-DRB1 (Supplemental Fig. 1A). […] However, the extent of peptide loading, which is evaluated by the mean fluorescence intensity (MFI), was the highes ...

[15] = target: HLA-DR4 (DRA*01:01/DRB1*04:05) (Homo sapiens, UniProt P01903+P01911, A100R/A169T/D86S/F76Y/I96L/K127E/L162R/M171V/N62H/P40V/Q125Y/R42H/S133A/S149N/S66Y/V115G/V209L/W38E); assay: FACS binding of biotinylated peptide to HLA-DR4 on HEK293T cells

Molecule: ACPKYVKQNTLKLATG [HA305-320, influenza hemagglutinin (HA) 305–320, biotinylated influenza hemagglutinin peptide]
- Peptide binding across HLA-DR genotypes [1]: did increase in any genotypes of DRB1-expressing cells
- Peptide loading, parental 3T3, 96-well [2]: a significant amount of HA305-320 binding was observed in the parental cells
- Peptide binding to parental 3T3 cells, 96-well, and after maximum [3]: gradually decreased
- HLA-independent binding share of entire signal, DR1 cells ([3]; […], HA305-320, obtained at 8 h): exceeded 80%
- Time to maximum binding, DR1 ([3]; […], then gradually decreased): 8 h
- Time to almost plateau loading (Discussion) ([3]; cell-based 96-well assay, […]): ~8 h
- Peptide binding to parental 3T3 cells (HLA-independent) [4]: significant degree of apparent binding; also recorded: bound to the cell surface independently of HLA, especially avidly in 3T3 cells
- Peptide binding (MFI), HLA-DR1 [5]: the highest level
- Binding to DRB1 genotypes [6]: bind to almost all genotypes of DRB1 molecules; also recorded: binds to every genotype of HLA-DRs
- Peptide binding, DR1 on 3T3 [7]: increased in cells expressing HLA, especially DR1; also recorded: could be loaded onto HLA to a sufficient level
- Binding intensity in 3T3 compared with HEK293T cells [8]: far less than those in HEK293T cells

Molecule: LMAKARQKVLMPSTMLP [scCLIP, scramble peptide (scCLIP), scramble version of the CLIP peptide]
- Inhibitory effect on MBP83-99 loading, DR15 [9]: no inhibitory effect
- Inhibitory effect on MBP83-99 loading, DR1 [10]: no inhibitory effect

Molecule: CC[C@H](C)[C@H](NC(=O)[C@H](CC(N)=O)NC(=O)[C@H](CCCCN)NC(=O)[C@H](Cc1ccccc1)NC(=O)[C@H](Cc1ccccc1)NC(=O)[C@H](Cc1c[nH]cn1)NC(=O)[C@@H](NC(=O)[C@@H](NC(=O)[C@@H]1CCCN1C(=O)[C@H](CC(N)=O)NC(=O)[C@@H](N)CCC(=O)O)C(C)C)C(C)C)C(=O)N[C@H](C(=O)N[C@H](C(=O)N1CCC[C@H]1C(=O)N[C@@H](CCCNC(=N)N)C(=O)N[C@H](C(=O)N1CCC[C@H]1C(=O)O)[C@@H](C)O)[C@@H](C)O)C(C)C [MBP83-99, myelin basic protein (MBP) 83–99]
- Kd ([3]; Scatchard plot, R² = 0.8216, read-out: apparent Kd, DR1, Scatchard plot): 14 µM
- Kd ([3]; double reciprocal plot, R² = 0.99, read-out: apparent Kd, DR1, double reciprocal plot): 10 µM
- HLA-independent binding share of apparent signal, DR1 cells ([3]; parental vs. DR1-expressing 3T3 cells, MBP83-99 5 µM): < 30%
- HLA-independent binding share of apparent signal, DR15 cells [11]: < 10%
- Kd ([12]; Scatchard plot, R² = 0.8781, read-out: apparent Kd, DR15, Scatchard plot): 3 µM
- Kd ([12]; double reciprocal plot, R² = 0.9378, read-out: apparent Kd, DR15, double reciprocal plot): 2 µM

Molecule: RSTMKPVQKVLEDSDLKKSD [BiP336-355, immunoglobulin binding protein (BiP) 336–355, biotinylated self-antigen peptide of BiP]
- Peptide binding across HLA-DR genotypes [1]: not to other DR-expressing cells
- Peptide binding to control cells [13]: No loading of either peptide was observed
- Presentation by DR4 [14]: self-antigen presented by DR4 (DRB1*04:05)
- Peptide binding (MFI), HLA-DR4, extended incubation ([15]; HEK293T, DRB1*04:05, incubation extended to 20 h, data not shown): could not observe a further increase
- Peptide binding (MFI), HLA-DR4 ([15]; SA-PE, HEK293T transiently expressing DRA*01:01 + DRB1*04:05, biotinylated peptide 30 µM, >5 h): could bind to DR4-expressing HEK293T cells, although very slightly

Reference: article PMC5533769, “A cell-based high-throughput screening assay system for inhibitor compounds of antigen presentation by HLA class II molecule” (Scientific Reports, 2017)
